Entries after “also recorded” stand apart in the source; their conditions may differ.
Assays:
[1] = target: T1, type I collagen films (fibrillar collagen) (Rattus norvegicus, UniProt P02454+P02466); experiment: Photo-triggered CMP binding assay on collagen films
T1 construct: Collagen solution (200 μL, 3.71 mg/mL, type I rat tail, BD Science); purchased BD Science; host or cells: rat tail
Description: Collagen/gelatin binding assays. Collagen solution (200 μL, 3.71 mg/mL, type I rat tail, BD Science) in 0.02 N acetic acid was added to each well of a 96-well black/clear-bottom plate (Costar) and air-dried. To make gelatin films, the same collagen solution was denatured at 70° C. for 15 minutes before applying to the well. The dried films were neutralized and washed with 1×PBS buffer (pH 7.4) and deionized water. PBS solution of carboxyfluorescein-labeled caged CMP (40 μL, 50 μM, unless indicated otherwise) pre-equilibrated at 4° C. was added onto each reconstituted collagen or gelatin film and exposed to 365 nm UV light (10 mW/cm^2, from mercury arc lamp) for 11 minutes on ice. Wells for the UV-negative control groups were covered with aluminum foil to block UV exposure. After incubation at 4° C. for over 3 hours (unless indicated otherwise), the unbound materials were removed by rinsing with PBS buffer and deionized water. The films were allowed to dry in dark, after which the fluorescence (ex: 489 nm, em: 533 nm) was measured with a SpectraMax Gemini XPS microplate reader (Molecular Devices). Each binding experiment was done in triplicate.

[2] = test system: type I and type II gelatin; experiment: CMP binding assay on thermally-denatured type I and II collagens (coatings); set-up: species or system rat (type I), bovine (type II); conditions: UV-exposed, 20 μM, room temperature
Description: CMP binding assay on thermally-denatured type I and II collagens. A solid-state protein coating instead of a reconstituted gelatin film (as described above) was chosen as the binding substrate to avoid the collagen type dependent film instability. Wells of nunc black 96-well maxisorp plate (Thermo Scientific) were charged with 50 μL of 1×PBS buffer containing 100 μg/mL type I or type II (bovine, BD Science) collagen which was denatured by 10 minutes of incubation at 75° C. After 1 hour, the coating solutions were removed and wells were washed with 1×PBS buffer containing 1 mg/mL BSA (PBSB), and blocked with 50 mg/mL BSA in PBS for 1 hour, followed by additional wash with PBSB. CF^NB(GPO)9 (SEQ ID NO: 4) or CF^SG9P9O9 (SEQ ID NO: 5) solution (20 μM, 50 μL in PBS) was added to each well, exposed to UV light for 10 min, and incubated at room temperature for 2.5 hours. Wells were washed three times with 100 μL of PBSB followed by fluorescence (ex: 489 nm, em: 533 nm) reading with a SpectraMax M-2 microplate reader (Molecular Devices). Each binding experiment was done in triplicate. The background fluorescence of empty wells was subtracted from the raw fluorescence data.

[3] = target: T2, MMP-1 cleaved type I collagen (Rattus norvegicus, UniProt P02454+P02466); experiment: Photo-triggered CMP binding assay on MMP-1 digested collagen; conditions: MMP-1 digested collagens after the 37° C. incubation; UV-activated
T2 construct: purchased BD Science (collagen); EMD Millipore (ProMMP-1); host or cells: rat tail; digested in house
T2 sequence (P02454 152-942 limits assumed): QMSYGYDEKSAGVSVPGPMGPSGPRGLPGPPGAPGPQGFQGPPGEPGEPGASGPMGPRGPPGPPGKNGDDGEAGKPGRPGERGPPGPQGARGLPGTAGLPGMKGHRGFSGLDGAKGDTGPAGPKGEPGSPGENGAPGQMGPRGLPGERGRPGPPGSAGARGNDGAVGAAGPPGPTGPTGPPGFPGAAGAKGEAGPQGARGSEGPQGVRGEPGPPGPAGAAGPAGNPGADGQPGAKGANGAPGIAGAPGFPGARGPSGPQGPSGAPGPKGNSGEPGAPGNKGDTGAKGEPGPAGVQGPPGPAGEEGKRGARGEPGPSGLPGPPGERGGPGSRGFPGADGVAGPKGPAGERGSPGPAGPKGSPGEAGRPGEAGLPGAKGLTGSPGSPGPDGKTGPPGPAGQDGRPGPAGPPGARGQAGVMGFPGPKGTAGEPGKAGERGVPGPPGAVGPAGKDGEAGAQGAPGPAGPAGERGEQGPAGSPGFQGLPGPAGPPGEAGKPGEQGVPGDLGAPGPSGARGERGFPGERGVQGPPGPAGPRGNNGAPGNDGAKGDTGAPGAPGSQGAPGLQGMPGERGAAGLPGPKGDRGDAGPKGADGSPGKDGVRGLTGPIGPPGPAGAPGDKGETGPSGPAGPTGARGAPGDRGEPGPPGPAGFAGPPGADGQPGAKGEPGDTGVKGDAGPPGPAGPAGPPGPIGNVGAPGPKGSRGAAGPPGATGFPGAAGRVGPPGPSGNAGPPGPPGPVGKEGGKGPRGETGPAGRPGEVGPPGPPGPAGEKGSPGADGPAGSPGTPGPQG
T2 sequence (P02454 943-1207 limits assumed): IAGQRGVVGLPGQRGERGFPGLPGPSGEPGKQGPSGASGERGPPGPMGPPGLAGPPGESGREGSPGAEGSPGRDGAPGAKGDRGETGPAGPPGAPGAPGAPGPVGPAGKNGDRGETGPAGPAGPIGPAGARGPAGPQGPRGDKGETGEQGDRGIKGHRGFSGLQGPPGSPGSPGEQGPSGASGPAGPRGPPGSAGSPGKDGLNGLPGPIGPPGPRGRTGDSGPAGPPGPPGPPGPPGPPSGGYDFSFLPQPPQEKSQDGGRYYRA
T2 sequence (P02466 86-871 limits assumed): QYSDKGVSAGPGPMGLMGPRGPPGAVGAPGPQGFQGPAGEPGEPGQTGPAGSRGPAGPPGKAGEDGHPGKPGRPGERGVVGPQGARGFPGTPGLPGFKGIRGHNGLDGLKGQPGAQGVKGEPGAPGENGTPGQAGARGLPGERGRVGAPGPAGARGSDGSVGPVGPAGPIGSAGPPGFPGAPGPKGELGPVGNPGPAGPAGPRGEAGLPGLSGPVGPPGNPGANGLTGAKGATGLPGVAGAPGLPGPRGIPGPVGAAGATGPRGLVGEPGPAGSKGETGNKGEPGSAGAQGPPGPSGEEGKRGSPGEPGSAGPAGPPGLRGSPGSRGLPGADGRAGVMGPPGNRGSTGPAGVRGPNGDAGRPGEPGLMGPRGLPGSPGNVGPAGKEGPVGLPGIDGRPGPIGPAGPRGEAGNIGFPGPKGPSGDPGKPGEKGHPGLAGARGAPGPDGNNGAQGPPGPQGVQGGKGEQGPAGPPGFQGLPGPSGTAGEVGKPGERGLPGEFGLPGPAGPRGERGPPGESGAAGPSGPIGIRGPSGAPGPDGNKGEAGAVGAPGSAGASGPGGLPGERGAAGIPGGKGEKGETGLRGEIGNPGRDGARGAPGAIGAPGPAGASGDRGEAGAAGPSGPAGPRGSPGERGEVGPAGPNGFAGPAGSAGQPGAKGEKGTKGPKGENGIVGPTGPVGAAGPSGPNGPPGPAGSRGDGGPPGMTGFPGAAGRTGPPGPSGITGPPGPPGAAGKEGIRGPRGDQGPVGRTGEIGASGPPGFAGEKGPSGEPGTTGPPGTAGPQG
T2 sequence (P02466 872-1125 limits assumed): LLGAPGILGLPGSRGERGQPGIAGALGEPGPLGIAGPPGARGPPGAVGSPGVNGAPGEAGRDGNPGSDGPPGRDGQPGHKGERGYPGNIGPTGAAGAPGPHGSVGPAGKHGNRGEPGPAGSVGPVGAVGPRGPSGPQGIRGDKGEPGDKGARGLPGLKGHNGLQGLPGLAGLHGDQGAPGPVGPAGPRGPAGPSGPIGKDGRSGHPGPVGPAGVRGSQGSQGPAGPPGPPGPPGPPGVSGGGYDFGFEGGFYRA
Description: MMP-1 digestion of type I collagen and CMP binding assays. ProMMP-1 (1 μg, EMD Millipore) was activated by p-aminophenylmercuric acetate (1.1 mM) in 132.5 μL of TNC buffer (50 mM Tris-HCl, 0.15 M NaCl, 5 mM CaCl2, 0.02% NaN3, pH 7.5) at 37° C. for 3 hr. Type I collagen (62.6 μg) was subsequently added to the MMP-1 solution and incubated at room temperature for at least 3 days. Digested products were analyzed by SDS-PAGE and circular dichroism spectroscopy (FIG. 12). Wells of nunc black 96-well maxisorp plate were charged with 50 μL of TNC buffer containing 0.5 M glycerol, and 100 μg/mL collagen or MMP-1 cleaved collagen, and incubated at room temperature. The collagen solutions used were either kept at room temperature (22° C.) or incubated at 37° C. for 1 minute just prior to coating. […] Wells were washed extensively with PBSB followed by fluorescence (ex: 489 nm, em: 533 nm) reading with a SpectraMax M-2 microplate reader (Molecular Devices). […] The background fluorescence of empty wells was subtracted from the raw fluorescence data. For estimating the amount of adsorbed protein, un-blocked collagen-coated wells were treated with 100 μM 5-(4,6-dichlorotriazinyl)aminofluorescein (DTAF, 50 μL, in 0.1 M sodium borate buffer) at room temperature for 3 hours, and the fluorescence (ex: 489 nm, em: 533 nm) of the well was measured after washing with 1×PBS. […]

T1 sequence (P02454 152-1207 limits assumed): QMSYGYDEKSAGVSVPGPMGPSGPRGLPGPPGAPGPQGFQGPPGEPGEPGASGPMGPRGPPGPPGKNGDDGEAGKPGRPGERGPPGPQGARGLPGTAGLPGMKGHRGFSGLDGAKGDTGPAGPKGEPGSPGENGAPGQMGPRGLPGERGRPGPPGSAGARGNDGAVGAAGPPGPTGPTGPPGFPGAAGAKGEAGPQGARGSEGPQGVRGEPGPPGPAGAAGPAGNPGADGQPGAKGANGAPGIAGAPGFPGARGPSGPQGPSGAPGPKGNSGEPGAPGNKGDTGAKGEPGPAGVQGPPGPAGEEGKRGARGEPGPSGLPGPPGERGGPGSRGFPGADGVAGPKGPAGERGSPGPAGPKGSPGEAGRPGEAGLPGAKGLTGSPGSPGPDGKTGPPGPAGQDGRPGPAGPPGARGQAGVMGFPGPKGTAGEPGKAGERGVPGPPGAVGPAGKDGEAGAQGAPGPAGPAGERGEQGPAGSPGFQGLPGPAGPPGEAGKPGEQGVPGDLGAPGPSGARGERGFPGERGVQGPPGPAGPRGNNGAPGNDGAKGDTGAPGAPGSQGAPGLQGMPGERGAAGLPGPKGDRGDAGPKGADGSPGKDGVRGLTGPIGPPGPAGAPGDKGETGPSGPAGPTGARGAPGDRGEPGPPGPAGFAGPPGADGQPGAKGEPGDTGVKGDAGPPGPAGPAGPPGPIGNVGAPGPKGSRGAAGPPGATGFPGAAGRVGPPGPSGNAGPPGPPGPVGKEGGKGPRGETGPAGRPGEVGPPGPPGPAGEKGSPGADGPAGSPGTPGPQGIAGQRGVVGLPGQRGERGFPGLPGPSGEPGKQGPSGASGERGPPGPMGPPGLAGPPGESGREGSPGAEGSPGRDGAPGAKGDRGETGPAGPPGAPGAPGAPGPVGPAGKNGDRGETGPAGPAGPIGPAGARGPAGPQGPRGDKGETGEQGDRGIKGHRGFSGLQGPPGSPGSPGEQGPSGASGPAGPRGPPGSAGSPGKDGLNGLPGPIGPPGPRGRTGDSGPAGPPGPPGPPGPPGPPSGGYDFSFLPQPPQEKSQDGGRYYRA
T1 sequence (P02466 86-1125 limits assumed): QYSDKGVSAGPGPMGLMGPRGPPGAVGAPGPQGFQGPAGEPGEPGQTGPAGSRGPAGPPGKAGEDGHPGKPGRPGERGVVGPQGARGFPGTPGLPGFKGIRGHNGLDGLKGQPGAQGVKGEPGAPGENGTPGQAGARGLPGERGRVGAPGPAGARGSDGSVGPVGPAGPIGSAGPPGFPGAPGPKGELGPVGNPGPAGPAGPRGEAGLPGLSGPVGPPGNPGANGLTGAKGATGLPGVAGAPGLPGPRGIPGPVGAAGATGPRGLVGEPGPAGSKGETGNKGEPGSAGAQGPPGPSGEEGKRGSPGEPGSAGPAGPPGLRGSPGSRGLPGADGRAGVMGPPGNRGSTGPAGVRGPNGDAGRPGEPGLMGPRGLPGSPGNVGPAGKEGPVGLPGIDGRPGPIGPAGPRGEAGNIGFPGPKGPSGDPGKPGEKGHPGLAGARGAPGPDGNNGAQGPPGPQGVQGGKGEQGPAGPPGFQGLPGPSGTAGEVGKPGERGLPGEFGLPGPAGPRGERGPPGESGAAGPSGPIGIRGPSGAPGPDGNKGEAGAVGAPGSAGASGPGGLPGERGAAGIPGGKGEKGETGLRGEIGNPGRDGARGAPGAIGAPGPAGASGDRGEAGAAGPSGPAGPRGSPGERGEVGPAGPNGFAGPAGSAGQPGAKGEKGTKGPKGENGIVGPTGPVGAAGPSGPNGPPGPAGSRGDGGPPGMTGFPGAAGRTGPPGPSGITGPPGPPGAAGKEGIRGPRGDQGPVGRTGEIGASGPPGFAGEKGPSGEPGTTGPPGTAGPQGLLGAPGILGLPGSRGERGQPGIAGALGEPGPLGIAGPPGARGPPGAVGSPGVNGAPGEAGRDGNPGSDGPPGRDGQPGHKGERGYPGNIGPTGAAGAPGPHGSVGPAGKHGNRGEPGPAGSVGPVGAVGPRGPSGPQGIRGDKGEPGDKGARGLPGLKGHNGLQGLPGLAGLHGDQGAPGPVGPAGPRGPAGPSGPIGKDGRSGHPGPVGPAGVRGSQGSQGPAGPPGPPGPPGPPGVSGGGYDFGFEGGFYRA

## CF-GGG-(GPO)4^NBGPO(GPO)4 [CF^NB(GPO)9]
[1]; 4° C., intact type I collagen films
  collagen binding with and without UV exposure: collagen binding was observed only after exposing the sample to UV light
[1]; caged, UV−
  binding (fluorescence intensity of film): negligible
[2]
  binding affinity to gelatin (fluorescence level): confirmed for both type I and type II gelatin
[3]
  level of CMP binding, fold higher compared to all other collagens tested: 4-10 fold

## CF-GGG-PGOGPGPOPOGOGOPPGOOPGGOOPPG [CF^SG9P9O9, reference compound]
[2]
  binding affinity to gelatin (fluorescence level): negligible affinity to gelatin

## CF-GGG-(GPO)9 [CF(GPO)9]
[1]; non-caged, triple helical, with UV exposure, 4° C.
  CMP binding lower by a factor of, compared to UV-triggered binding of CF^NB(GPO)9: 11
[1]; thermally melted at 75° C., non-caged
  heat-induced binding level compared to photo-triggered caged CF^NB(GPO)9: significantly elevated binding levels; also recorded: significantly higher binding level

Reference: patent publication US10426850B2, “Collagen mimetic peptides for targeting collagen strands for in vitro and in vivo imaging and therapeutic use” (The Johns Hopkins University, priority 2011, dated 2019)
